Data: patent US9783521B2, “PDE10 inhibitors and related compositions and methods” (Omeros Corporation, priority 2008, dated 2017)

Target: T1, recombinant human PDE 10A1 (Homo sapiens, UniProt Q9Y233)
T1 construct: made in house; host or cells: Sf9 insect cells, baculoviral system
Test: PDE10 biochemical assay (two-step Thompson and Appleman method or SPA)
Conditions: not given
Experimental: After the appropriate incubation time, the reaction is terminated by heating. The mixture is then subjected to treatment with snake venom phosphatase. […] IC50 values can be calculated by performing the experiment at several concentrations using standard graphical means. A detailed description of the actual technique used for IC50 assays as set forth in following Examples.
The phosphodiesterase (PDE) assay was performed using recombinant human PDE 1A3, 2A3, 3 catalytic region, 4 catalytic region, 5 catalytic region, 7A, 8A, 9A2, 10A1 and 11A1 enzymes expressed in a baculoviral system using Sf9 cells. PDE activity was measured using a modification of the two-step method of Thompson and Appleman described above which was adapted for 96 well plate format. […] Reactions were initiated with enzyme and incubated with (^3H)-substrate and substance for 20 minutes at 30° C. The reaction was terminated by denaturing the enzyme (heating the reaction to 70° C. for 2 minutes). The reaction was then cooled at 4° C. for 10 minutes before the addition of snake venom (Crotalus atrox, 0.2 mg/ml) for 10 minutes at 30° C., thus allowing non-specific hydrolysis of the tritiated substrate. Separation of the remaining unhydrolysed cyclic nucleotide was achieved by a batch binding of the mixture to activated Dowex (200 μl) anion exchange resin. The anion exchange resin bound the charged nucleotides, leaving only hydrolysed (^3H) substrate in the soluble fraction. The soluble fraction (50 μl) was then added to microscint-20 (200 μl) and counted on a Top Count Plate reader. Radioactivity units were plotted against inhibitor concentration and IC50 values obtained using Graph Pad Prism software.
Alternatively, phosphodiesterase activity was measured by scintillation proximity assay (SPA) with [^3H]-cGMP as substrate. Purified PDE10 was diluted and stored in 25 mM Tris-Cl (pH 8.0)/100 mM NaCl/0.05% Tween 20/50% glycerol/3 mM DTT. Assays contained (final concentrations): 50 mM Tris-Cl (pH 7.5)/8.3 mM MgCl2/1.7 mM EGTA/0.5 mg/ml BSA/5% DMSO and 2 ng PDE10 in a final volume of 0.1 mL. Inhibition was evaluated at 8 concentrations in duplicate. Reactions were initiated by addition of enzyme and were terminated after 20 minutes at 30° C. by the addition of 50 μl of SPA beads containing Zn^++. The mixture was shaken, allowed to settle for 3 hours, and counted in a Wallac plate counter. Results (net cpm) were fitted to a four parameter logistic model using Excel Solver®.

T1 sequence (Q9Y233 1-779 isoform Q9Y233-1): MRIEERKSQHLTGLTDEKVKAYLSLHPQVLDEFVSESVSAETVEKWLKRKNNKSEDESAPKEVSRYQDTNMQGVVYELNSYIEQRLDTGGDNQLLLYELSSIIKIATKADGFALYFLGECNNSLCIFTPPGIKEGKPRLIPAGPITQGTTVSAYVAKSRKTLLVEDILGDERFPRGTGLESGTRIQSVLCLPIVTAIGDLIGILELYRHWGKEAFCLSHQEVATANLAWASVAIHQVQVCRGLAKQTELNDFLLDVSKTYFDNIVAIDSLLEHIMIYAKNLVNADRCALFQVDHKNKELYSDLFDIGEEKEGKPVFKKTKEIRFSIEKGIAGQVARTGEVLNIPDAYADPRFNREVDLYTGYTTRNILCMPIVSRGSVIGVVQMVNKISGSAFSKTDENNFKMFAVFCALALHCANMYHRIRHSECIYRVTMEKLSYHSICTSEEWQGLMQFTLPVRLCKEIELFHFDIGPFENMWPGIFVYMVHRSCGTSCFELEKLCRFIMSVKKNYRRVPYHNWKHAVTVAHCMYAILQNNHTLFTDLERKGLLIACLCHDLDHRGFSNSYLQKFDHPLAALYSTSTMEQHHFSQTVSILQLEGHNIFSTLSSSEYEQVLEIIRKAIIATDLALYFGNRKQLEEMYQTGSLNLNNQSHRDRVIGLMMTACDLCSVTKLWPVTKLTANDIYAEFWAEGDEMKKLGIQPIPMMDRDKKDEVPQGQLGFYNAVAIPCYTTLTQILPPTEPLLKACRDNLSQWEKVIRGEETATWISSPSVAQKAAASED

Structure (SMILES) | IC50 [µM]
CCOc1cc(/C=N/NC(=O)C(OC)c2ccc(Cl)cc2)ccc1OC (stereo not shown) [Compound 12-7] | ≤ 1
COc1ccc(/C=N/N(C)C(=O)C(OC)c2ccccc2)cc1OC (stereo not shown) [Compound 12-70, (E)-N′-(3,4-Dimethoxybenzylidene)-2-methoxy-N-methyl-2-phenylacetohydrazide] | ≤ 1

Same assay, conditions: PDE10 inhibition; read-out: IC50

Structure (SMILES) | IC50 [µM]
CCOC(C(=O)N/N=C/c1cc(OC)c(Br)c(OC)c1)c1ccc2c(c1)OCCN2C (stereo not shown) [Compound 12-84] | ≤ 1
COc1ccc(C(OC)C(=O)N/N=C/c2ccc(OC)c(OC)c2)cc1 (stereo not shown) [Compound 12-19] | ≤ 1
COc1cc(/C=N/N(CC(F)(F)F)C(=O)C(OC)c2ccc(-n3cccn3)cc2)cc(OC)c1Br (stereo not shown) [Compound 11-1, (E)-2-(4-(1H-pyrazol-1-yl)phenyl)-N′-(4-bromo-3,5-dimethoxybenzylidene)-2-methoxy-N-(2,2,2-trifluoroethyl)acetohydrazide] | ≤ 1
COc1ccc(/C=N/NC(=O)C(OC)c2ccc3ccccc3c2)cc1OC(F)F (stereo not shown) [Compound 12-16] | ≤ 1
COc1cc(/C=N/NC(=O)C(OC)c2ccccc2)cc(OC)c1OC (stereo not shown) [Compound 12-17] | ≤ 1
COc1cc(Cl)c(/C=N/NC(=O)C(OC)c2ccc3c(c2)OCCO3)cc1OC (stereo not shown) [Compound 12-83] | ≤ 1
CCOC(C(=O)N/N=C/c1cc(OC)c(C)c(OC)c1)c1cccc2c1OCCO2 (stereo not shown) [Compound 12-128] | ≤ 1
COc1ccc(/C=N/NC(=O)C(OC)c2ccc(Cl)cc2)cc1OC (stereo not shown) [Compound 12-10] | ≤ 1
COc1cc(/C=N/NC(=O)C(OC)c2ccccc2)ccc1C (stereo not shown) [Compound 12-20] | ≤ 1
COc1cc(/C=N/NC(=O)C(OC)c2ccc(Cl)cc2)cc(Cl)c1OC (stereo not shown) [Compound 12-6] | ≤ 1
COc1cc(/C=N/NC(=O)C(OC)c2cnc3ccccc3c2)cc(OC)c1OC (stereo not shown) [Compound 12-61] | ≤ 1
CCOc1cc(/C=N/NC(=O)C(OC)c2ccc(Cl)cc2)cc(Br)c1OC (stereo not shown) [Compound 12-2] | ≤ 1
COc1cc(/C(C)=N/NC(=O)C(OC)c2ccccc2)cc(OC)c1OC (stereo not shown) [Compound 12-69] | ≤ 1
COc1ccc(/C=N/NC(=O)C(c2ccccc2)C(C)C)cc1OC (stereo not shown) [Compound 9-1, (E)-N′-(3,4-Dimethoxybenzylidene)-3-methyl-2-phenylbutanehydrazide] | ≤ 1
COc1cc(/C=N/NC(=O)C(OC)c2ccc(Cl)cc2)cc(C#N)c1OC (stereo not shown) [Compound 12-14] | ≤ 1
COc1cc(/C=N/NC(=O)C(OC)c2ccnc3ccccc23)cc(OC)c1OC (stereo not shown) [Compound 12-56] | ≤ 1
COCCOC(C(=O)N/N=C/c1cc(OC)c(OC)c(OC)c1)c1ccc2ccccc2c1 (stereo not shown) [Compound 12-45] | ≤ 1
COc1cc(/C=N/NC(=O)C(OC)c2ccc(N3CCCC3)cc2)cc(OC)c1Cl (stereo not shown) [Compound 12-126] | ≤ 1
COc1cc(/C=N/NC(=O)C(OC)c2ccc(Cl)cc2)ccc1C#N (stereo not shown) [Compound 12-22] | ≤ 1
COc1ccc(/C=N/NC(=O)Cc2ccc(OC)c(OC)c2)cc1OC [Compound 12-90] | ≤ 1

Structure (SMILES) | IC50 [µM]
CCC(C(=O)N/N=C/c1ccc(OC)c(OC)c1)c1ccccc1 (stereo not shown) [Compound 12-71] | ≤ 1
COc1cc(/C=N/NC(=O)Cc2ccccc2)cc(OC)c1OC [Compound 12-89] | ≤ 1
COc1cc(/C=N/NC(=O)C(OC)c2ccc3c(c2)OCO3)cc(Br)c1OC (stereo not shown) [Compound 12-116] | ≤ 1
COc1cc(/C=N/NC(=O)C(OC)c2cccc(N(C)C)c2)cc(Br)c1OC (stereo not shown) [Compound 12-122] | ≤ 1
CCOC(C(=O)N/N=C/c1cc(Br)c(OC)c(OC)c1)c1cccc2c1OCCO2 (stereo not shown) [Compound 12-129] | ≤ 1
CCOC(C(=O)N/N=C/c1cc(OC)c(Br)c(OC)c1)c1ccc2c(c1)OCCO2 (stereo not shown) [Compound 12-87] | ≤ 1
CCOC(C(=O)N/N=C/c1cc(OC)c(OC)c(OC)c1)c1cccc2c1OCCO2 (stereo not shown) [Compound 12-130] | ≤ 1
COc1cc(/C=N/NC(=O)C(OC)c2ccc3ccccc3c2)cc(OC)c1OC (stereo not shown) [Compound 1-1, (E)-2-Methoxy-2-(naphthalen-2-yl)-N′-(3,4,5-trimethoxybenzylidene)acetohydrazide] | ≤ 1
COc1ccc(/C=N/NC(=O)C(OC)c2ccc3ccccc3c2)cc1OC (stereo not shown) [Compound 12-23] | ≤ 1
COCCOC(C(=O)N/N=C/c1cc(OC)c(Br)c(OC)c1)c1ccc2ccccc2c1 (stereo not shown) [Compound 12-43] | ≤ 1
COc1cc(/C=N/NC(=O)C(OC)c2ccc(N(C)C)cc2)cc(OC)c1OC (stereo not shown) [Compound 7-1, (E)-2-(4-(Dimethylamino)phenyl)-2-methoxy-N′-(3,4,5-trimethoxybenzylidene)acetohydrazide] | ≤ 1
COc1cc(/C=N/NC(=O)C(OCCN(C)C)c2ccc3ccccc3c2)cc(OC)c1Br (stereo not shown) [Compound 12-123] | ≤ 1
COc1cc(/C=N/N=C(\OC(=O)C(C)(C)C)C(OC)c2cccc3ccccc23)cc(OC)c1OC (stereo not shown) [Compound 5-1, (1Z, N′E)-2-Methoxy-2-(naphthalen-1-yl)-N′-(3,4,5-trimethoxybenzylidene)acetohydrazonic pivalic anhydride] | ≤ 1
COc1cc(/C=N/NC(=O)C(OC)c2cccc3ncccc23)cc(OC)c1OC (stereo not shown) [Compound 6-1, (E)-2-methoxy-2-(quinolin-5-yl)-N′-(3,4,5-trimethoxybenzylidene)acetohydrazide] | ≤ 1
COc1cc(/C=N/NC(=O)C(OC)c2ccc(F)cc2)cc(OC)c1Br (stereo not shown) [Compound 12-1] | ≤ 1
COCCOC(C(=O)N/N=C/c1cc(Br)c(OC)c(OC)c1)c1ccc2ccccc2c1 (stereo not shown) [Compound 12-48] | ≤ 1
CCOC(C(=O)N/N=C/c1cc(OC)c(OC)c(OC)c1)c1ccc2c(c1)OCCO2 (stereo not shown) [Compound 12-88] | ≤ 1
COc1cc(/C=N/NC(=O)C(OC)c2ccccc2)cc(OC)c1O (stereo not shown) [Compound 12-24] | ≤ 1
COc1cc(/C=N/NC(=O)C(OC)c2cccc(N(C)C)c2)cc(OC)c1O (stereo not shown) [Compound 12-124] | ≤ 1
COc1cc(/C=N/NC(=O)C(OCCN(C)C)c2ccc3c(c2)OCO3)cc(OC)c1Br (stereo not shown) [Compound 12-109] | ≤ 1

Structure (SMILES) | IC50 [µM]
CCOC(C(=O)N/N=C/c1cc(OC)c(Br)c(OC)c1)c1cccc2c1OCCO2 (stereo not shown) [Compound 12-131] | ≤ 1
COc1cc(/C=N/NC(=O)C(OC)c2ccc(F)cc2)cc(Br)c1OC (stereo not shown) [Compound 12-3] | ≤ 1
COc1cc(/C=N/NC(=O)C(OC)c2ccccc2)cc(OC)c1 (stereo not shown) [Compound 12-25] | ≤ 1
COc1cc(/C=N/NC(=O)C(c2ccccc2)c2ccccc2)cc(OC)c1OC [Compound 3-1, (E)-2,2-Diphenyl-N′-(3,4,5-trimethoxybenzylidene)acetohydrazide] | ≤ 1
COc1cc(/C(C)=N/NC(=O)C(OC)c2ccc(-n3cccn3)cc2)cc(OC)c1OC (stereo not shown) [Compound 12-144] | ≤ 1
COc1cc(/C=N/NC(=O)C(Oc2ccccc2)c2ccccc2)cc(OC)c1OC (stereo not shown) [Compound 12-41] | ≤ 1
CCOC(C(=O)N/N=C/c1cc(OC)cc(OC)c1)c1cccc2ncccc12 (stereo not shown) [Compound 12-120] | ≤ 1
CCOC(C(=O)N/N=C/c1cc(OC)c(Cl)c(OC)c1)c1cccc2ncccc12 (stereo not shown) [Compound 12-119] | ≤ 1
COc1cc(/C=N/NC(=O)C(OC)c2ccc(Cl)cc2)cc(OC)c1Br (stereo not shown) [Compound 12-12] | ≤ 1
CCOc1ccc(/C=N/NC(=O)C(OC)c2ccccc2)cc1OCC (stereo not shown) [Compound 12-26] | ≤ 1
COc1cc(/C=N/NC(=O)C(OC)c2cccc3ccccc23)cc(OC)c1OC (stereo not shown) [Compound 12-13] | ≤ 1
CCOC(C(=O)N/N=C/c1cc(Br)c(OC)c(OC)c1)c1ccc2c(c1)OCCO2 (stereo not shown) [Compound 12-135] | ≤ 1
COc1cc(/C=N/NC(=O)C(OC)c2ccnc3ccccc23)cc(Br)c1OC (stereo not shown) [Compound 12-58] | ≤ 1
COc1ccc(/C=N/NC(=O)C(SC)c2ccccc2)cc1OC (stereo not shown) [Compound 4-1, (E)-N′-(3,4-Dimethoxybenzylidene)-2-(methylthio)-2-phenylacetohydrazide] | ≤ 1
COc1cc(/C=N/NC(=O)C(OC)c2ccc(Cl)cc2)cc(Br)c1OC (stereo not shown) [Compound 12-4] | ≤ 1
CCOc1cc(/C=N/NC(=O)C(OC)c2ccc(Cl)cc2)cc(Cl)c1OC (stereo not shown) [Compound 12-5] | ≤ 1
COc1ccc(/C=N/NC(=O)C(OC)c2ccc(-n3cccn3)cc2)cc1OC (stereo not shown) [Compound 12-155] | ≤ 1
CCOC(C(=O)N/N=C/c1cc(Br)c(OC)c(OC)c1)c1ccc2c(c1)OCCN2C (stereo not shown) [Compound 12-86] | ≤ 1
COc1cc(/C=N/NC(=O)Cc2ccc(N3CCOCC3)cc2)cc(OC)c1Br [Compound 12-139] | ≤ 1
